This assay deals with T1, human red cone opsin (Homo sapiens, UniProt P04000).
T1 sequence (P04000 1-364): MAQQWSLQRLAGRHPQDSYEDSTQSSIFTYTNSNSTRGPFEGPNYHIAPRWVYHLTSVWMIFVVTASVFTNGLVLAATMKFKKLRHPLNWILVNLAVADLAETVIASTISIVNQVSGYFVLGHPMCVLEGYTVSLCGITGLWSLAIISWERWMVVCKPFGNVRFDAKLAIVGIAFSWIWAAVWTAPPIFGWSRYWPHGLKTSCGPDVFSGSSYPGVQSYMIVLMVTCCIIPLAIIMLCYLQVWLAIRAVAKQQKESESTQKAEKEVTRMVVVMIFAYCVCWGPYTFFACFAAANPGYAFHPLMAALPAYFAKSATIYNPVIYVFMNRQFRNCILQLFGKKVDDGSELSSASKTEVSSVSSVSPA
Kind of assay: radioactive GTPγS filter binding, transducin activation. Format: biochemical. Particulars: COS-1 membranes, bovine rod transducin, pH 6.4.

Take `CC(=O)/C=C/C1=C(C)CCCC1(C)C` [β-ionone]: the inverse agonist result is recorded as “these compounds were found to be inverse agonists to the red cone opsin”.

The values are drawn from publication PMC3697084 (Methods in enzymology, 2010).
